Measured values as given in PubChem BioAssay (NCI).
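Growth conditions: 96-well plates. Treatment: test compound, 48 hours, 5 concentrations. Analysis: linear interpolation between bracketing concentrations; unreached endpoints set to highest concentration. TGI is the concentration that stops growth completely.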

Experiments:
Assay in all cases: NCI tumour cell line growth inhibition, 48 h
SF-539 CNS = test system: SF-539 CNS
786-0 renal = test system: 786-0 renal
SK-MEL-2 melanoma = test system: SK-MEL-2 melanoma
COLO 205 colon = test system: COLO 205 colon
UO-31 renal = test system: UO-31 renal
DMS 273 small cell lung = test system: DMS 273 small cell lung
U251 CNS = test system: U251 CNS
MALME-3M melanoma = test system: MALME-3M melanoma
DLD-1 colon = test system: DLD-1 colon
OVCAR-8 ovarian = test system: OVCAR-8 ovarian
SF-295 CNS = test system: SF-295 CNS
SR leukemia = test system: SR leukemia
M19-MEL melanoma = test system: M19-MEL melanoma
HOP-92 NSCLC = test system: HOP-92 NSCLC
CAKI-1 renal = test system: CAKI-1 renal
TK-10 renal = test system: TK-10 renal
NCI-H23 lung = test system: NCI-H23 lung
CCRF-CEM leukemia = test system: CCRF-CEM leukemia
RPMI-8226 leukemia = test system: RPMI-8226 leukemia
SNB-75 CNS = test system: SNB-75 CNS
SK-MEL-5 melanoma = test system: SK-MEL-5 melanoma
SW-620 colon = test system: SW-620 colon
SK-OV-3 ovarian = test system: SK-OV-3 ovarian
KM20L2 colon = test system: KM20L2 colon
NCI-H522 lung = test system: NCI-H522 lung
ACHN renal = test system: ACHN renal
KM12 colon = test system: KM12 colon
EKVX NSCLC = test system: EKVX NSCLC
NCI-H460 lung = test system: NCI-H460 lung
UACC-62 melanoma = test system: UACC-62 melanoma
SF-268 CNS = test system: SF-268 CNS
MOLT-4 leukemia = test system: MOLT-4 leukemia
A549 NSCLC = test system: A549 NSCLC
RXF-631 renal = test system: RXF-631 renal
HCT-116 colon = test system: HCT-116 colon
NCI-H226 lung = test system: NCI-H226 lung
HL-60(TB) leukemia = test system: HL-60(TB) leukemia
HT29 colon = test system: HT29 colon
LOX IMVI melanoma = test system: LOX IMVI melanoma
UACC-257 melanoma = test system: UACC-257 melanoma
DMS 114 small cell lung = test system: DMS 114 small cell lung
RXF 393 renal = test system: RXF 393 renal
LXFL 529 NSCLC = test system: LXFL 529 NSCLC
OVCAR-4 ovarian = test system: OVCAR-4 ovarian
OVCAR-3 ovarian = test system: OVCAR-3 ovarian
A498 renal = test system: A498 renal
SNB-19 CNS = test system: SNB-19 CNS
HOP-62 NSCLC = test system: HOP-62 NSCLC
K-562 leukemia = test system: K-562 leukemia
HOP-18 NSCLC = test system: HOP-18 NSCLC
OVCAR-5 ovarian = test system: OVCAR-5 ovarian
SNB-78 CNS = test system: SNB-78 CNS
M14 melanoma = test system: M14 melanoma
HCT-15 colon = test system: HCT-15 colon
HCC-2998 colon = test system: HCC-2998 colon
SK-MEL-28 melanoma = test system: SK-MEL-28 melanoma
SN12C renal = test system: SN12C renal
IGROV1 ovarian = test system: IGROV1 ovarian

Work on `COc1ccc(NC(=O)C(=O)NO)c(OC)c1` yielded a TGI (SF-539 CNS) of 36.3 µM, a TGI (786-0 renal) of 29.6 µM and a TGI (SK-MEL-2 melanoma) of 30.9 µM. It also gave a TGI (COLO 205 colon) of 37.7 µM, a TGI (UO-31 renal) of 29.8 µM and a TGI (DMS 273 small cell lung) of 35.3 µM. The TGI (U251 CNS) was 30.5 µM, the TGI (MALME-3M melanoma) was 54.6 µM and the TGI (DLD-1 colon) was 41 µM. The TGI (OVCAR-8 ovarian) was 33.3 µM, the TGI (SF-295 CNS) was 27 µM and the TGI (SR leukemia) was 25.9 µM. For the same compound, the TGI (M19-MEL melanoma) was 38.9 µM, the TGI (HOP-92 NSCLC) was 35.7 µM and the TGI (CAKI-1 renal) was 27.3 µM. It also gave a TGI (TK-10 renal) of 37.1 µM, a TGI (NCI-H23 lung) of 34.1 µM and a TGI (CCRF-CEM leukemia) of 98 µM. It also gave a TGI (RPMI-8226 leukemia) of 49.1 µM, a TGI (SNB-75 CNS) of 35.3 µM and a TGI (SK-MEL-5 melanoma) of 32.5 µM. For the same compound, the TGI (SW-620 colon) was 34.5 µM, the TGI (SK-OV-3 ovarian) was 33.7 µM and the TGI (KM20L2 colon) was 33.3 µM. For the same compound, the TGI (NCI-H522 lung) was 19 µM, the TGI (ACHN renal) was 29.3 µM and the TGI (KM12 colon) was 34.2 µM. For the same compound, the TGI (EKVX NSCLC) was 28.7 µM, the TGI (NCI-H460 lung) was 33.4 µM and the TGI (UACC-62 melanoma) was 28.9 µM. For the same compound, the TGI (SF-268 CNS) was 32.1 µM, the TGI (MOLT-4 leukemia) was 35.2 µM and the TGI (A549 NSCLC) was 35.4 µM. It also gave a TGI (RXF-631 renal) of 57 µM, a TGI (HCT-116 colon) of 32.4 µM and a TGI (NCI-H226 lung) of 41.6 µM. It also gave a TGI (HL-60(TB) leukemia) of 43 µM, a TGI (HT29 colon) of 38.1 µM and a TGI (LOX IMVI melanoma) of 27.2 µM. It also gave a TGI (UACC-257 melanoma) of 38 µM, a TGI (DMS 114 small cell lung) of 29 µM and a TGI (RXF 393 renal) of 29.2 µM. For the same compound, the TGI (LXFL 529 NSCLC) was 30.3 µM, the TGI (OVCAR-4 ovarian) was 37.7 µM and the TGI (OVCAR-3 ovarian) was 30.3 µM. The TGI (A498 renal) was 39 µM, the TGI (SNB-19 CNS) was 28.2 µM and the TGI (HOP-62 NSCLC) was 35.1 µM. It also gave a TGI (K-562 leukemia) of 56.4 µM, a TGI (HOP-18 NSCLC) of 31.1 µM and a TGI (OVCAR-5 ovarian) of 33.6 µM. For the same compound, the TGI (SNB-78 CNS) was 44.1 µM, the TGI (M14 melanoma) was 29.9 µM and the TGI (HCT-15 colon) was 31.2 µM. It also gave a TGI (HCC-2998 colon) of 35.8 µM, a TGI (SK-MEL-28 melanoma) of 33.1 µM and a TGI (SN12C renal) of 39.6 µM. It also gave a TGI (IGROV1 ovarian) of 32 µM.
